Laboratory results reported in patent US9090631B2, “Process for purifying cefotiam hydrochloride” (HAINAN LINGKANG PHARMACEUTICAL CO., LTD., priority 2011, dated 2015).
Structures can show the parent of a compound that is named as a salt.

Test: Solubility of cefotiam hydrochloride in recrystallization solvents
Type: physicochemical
Excerpt: The solubility of cefotiam hydrochloride is great in water but very small in ethanol, and even smaller in acetone. A mixture of water and ethanol or a mixture of water and acetone is used as the solvent to recrystallize cefotiam hydrochloride.

- solubility (in ethanol): very small
- solubility (in water): great
SMILES: CN(C)CCn1nnnc1SCC1=C(C(=O)O)N2C(=O)[C@@H](NC(=O)Cc3csc(N)n3)[C@H]2SC1 [cefotiam hydrochloride, (6R,7R)-7-[[(2-amino-4-thiazolyl)acetyl]amino]-3-[[1-[2-(dimethylamino)ethyl]-1H-tetrazol-5-yl]thiomethyl]-8-oxo-5-thia-1-azabicyclo[4,2,0]oct-2-ene-2-carboxylic acid dihydrochloride]
